Source: patent publication US12344631B2, “C17 polar-substituted heteroaromatic synthetic triterpenoids and methods of use thereof” (REATA PHARMACEUTICALS, INC., priority 2019, dated 2025)

Experiments:
RAW 264.7 cells = experiment: Nitric oxide suppression assay (IFNγ-induced NO production); assay type: cell-based, mouse; conditions: for IC50: Mus musculus, RAW264.7, RAW 264.7 cells, 2 h pretreatment, 20 ng/mL interferon gamma 24 h, nitrite by Griess, read-out: NO IC50 (nM) (Mean ± SD); for NO IC50 Relative to RTA 402 (fold) (Mean ± SD): average of ratios from replicate experiments, benchmark RTA 402
Description: Tissue Culture. RAW 264.7, a mouse macrophage cell line, was obtained from American Type Culture Collection (Manassas VA) and maintained in the log phase of growth in Roswell Park Memorial Institute Medium 1640 (RPMI 1640) supplemented with 10% heat inactivated fetal bovine serum (FBS) and 1% penicillin-streptomycin. Cells were cultured and maintained in a humidified incubator at 37° C. under 5% CO2. Cells were sub-cultured every 3 days. […] All cell culture supplies were obtained from Life Technologies (Grand Island, NY) and VWR (Radnor, PA). Nitric Oxide Suppression Assay. RAW 264.7 cells were plated 1 day in advance of experimental treatments at a concentration of 30,000 cells per well onto Falcon-96 well clear bottom plates (Corning, NY) in a total volume of 200 μL per well using RPMI 1640 supplemented with 0.5% fetal bovine serum and 1% penicillin-streptomycin. The next day, cells were pretreated with compounds serially diluted from 1000× stocks. All compounds were dissolved in dimethyl sulfoxide (DMSO) at 10 mM stock solutions. Compounds were subsequently diluted in DMSO and RPMI 1640. Each well received a final concentration of 0.1% DMSO. Cells were pretreated for 2 hours and incubation at 37° C., followed by treatment with 20 ng/mL of interferon gamma (R&D Systems, Minneapolis, MN) per well for 24 hours. […] Afterwards, 50 μL of cell culture supernatant was transferred from each well into a new Falcon-96 well clear bottom plate. […] Afterwards, air bubbles were removed using ethanol vapor and absorbance was measured using a Spectramax M2e plate reader with a wavelength set to 525 nm. Viability was assessed using WST-1 cell proliferation reagent from Roche (Basel, Switzerland). After media was removed for the Nitric Oxide suppression assay, 15 μL of WST-1 reagent was added to each well of cells. Plates were briefly mixed on an orbital shaker and the cells were incubated at 37° C. for 30 minutes. Absorbance was measured using a Spectramax M2e plate reader with wavelengths set to 440 nm and 700 nm. For the ability of compounds to suppress the increase in nitric oxide release caused by interferon gamma, the absolute amount of nitrite that was produced in each well was extrapolated from the nitrite standards using a linear regression fit. All values were then normalized to the DMSO-interferon gamma treated wells and plotted as percent nitric oxide. IC50 values were calculated with a dependence on WST1 viability using Excel and/or GraphPad Prism (San Diego, CA).

[1] = system: AREc32 reporter cell line (antioxidant response element of rat Gsta2, Nrf2 target gene); experiment: AREc32 luciferase reporter activation; assay type: cell-based, human; conditions: for EC (2-fold): human, Arec32, 19 h, concentration increasing luminescence signal 2-fold above vehicle, nineteen hours, read-out: AREc32 EC2X (nM) (Mean ± SD); for AREc32 EC2X Relative to RTA 402 (fold) (Mean ± SD): average of ratios from replicate experiments, benchmark RTA 402
Description: […] The effect of several compounds disclosed herein on luciferase reporter activation was assessed in the AREc32 reporter cell line (see Table 10 and Table 11). This cell line is derived from human breast carcinoma MCF-7 cells and is stably transfected with a luciferase reporter gene under the transcriptional control of eight copies of the antioxidant response element from the rat Gsta2 gene, an Nrf2 target gene ([…] et al., 1990). […] Twenty-four hours after plating, cells were treated with vehicle (DMSO) or test compounds at concentrations ranging from 0.03 to 1000 nM for nineteen hours. Media was removed and 100 μL of 1:1 mixture of the One-Glo Luciferase assay reagent and culture medium was added to each well. After incubation for 5 min at room temperature, the luminescence signal was measured on a PHERAstar plate reader. The EC2X value was determined using Excel and GraphPad Prism software. The fold increase in luminescence signal for cells treated with each concentration of compound relative to cells treated with vehicle was determined and a dose-response curve was generated. The dose-response curve was fit using nonlinear regression analysis and used to extrapolate the EC2X value.

[2] = system: AML-12 hepatocyte cell line; experiment: Glutathione assay (total glutathione, GSH-Glo); assay type: cell-based, mouse
Description: The effect of compound treatment on total glutathione levels was evaluated in the mouse AML-12 hepatocyte cell line. Glutathione—a tripeptide consisting of cysteine, glutamate, and glycine—is the major thiol-containing protein within the cell and regulates cellular redox balance. Glutathione also plays important roles in detoxification, protein glutathionylation, and iron-sulfur cluster biogenesis (Bachhawat and Yadav, 2018). Nrf2 regulates the expression of many genes involved in glutathione synthesis and metabolism, including both subunits of glutamate cysteine ligase (GCL), the enzyme that catalyzes the rate limiting step of glutathione biosynthesis (Thimmulappa et al., 2002). […] The next day, cells were treated with vehicle (DMSO) or test compound (0.03 nM to 1000 nM). Each well received a final concentration of 0.1% DMSO. Cells were incubated at 37° C., 5% CO2 for 24 hours. Total glutathione concentrations were measured using the GSH-Glo Glutathione Assay kit (Promega) according to the manufacturer's instructions. Briefly, a standard curve was prepared by serially diluting the provided glutathione solution. […] After a 30-minute incubation at room temperature, 100 μL of Luciferin detection reagent was added to all sample and standard wells and incubated for 15 minutes. Luminescence was measured using a PHERAstar plate reader. The EC50 value was determined using Excel and GraphPad Prism software. The basal concentration of glutathione was set to 0% and the highest concentration of glutathione produced following treatment with a test compound was set to 100% and a dose-response curve was generated. The dose-response curve was fit using nonlinear regression analysis and used to extrapolate the EC50 value.

SMILES | IC50 (RAW 264.7 cells) | NO IC50 Relative to RTA 402 (fold) (Mean ± SD) (RAW 264.7 cells) | EC (2-fold) [1] | EC50 ([2]; Mus musculus, AML12, AML-12 cells, 24 hours, total glutathione, read-out: GSH EC50 (nM) (Mean ± SD)) | GSH EC50 Relative to RTA 402 (fold) (Mean ± SD) ([2]; benchmark RTA 402) | AREc32 EC2X Relative to RTA 402 (fold) (Mean ± SD) [1]
Cc1nnc([C@]23CCC(C)(C)C[C@H]2[C@H]2C(=O)C=C4[C@@]5(C)C=C(C#N)C(=O)[C@@H](C)[C@@H]5CC[C@@]4(C)[C@]2(C)CC3)o1 [CC4, reference compound] | 0.66 ± 0.06 nM | 0.51 ± 0.02 fold | 8.12 ± 3.53 nM |  |  | 
CC1(C)CC[C@]2(c3noc(CCN)n3)CC[C@]3(C)[C@H](C(=O)C=C4[C@@]5(C)C=C(C#N)C(=O)C(C)(C)[C@@H]5CC[C@]43C)[C@@H]2C1 [Compound T3] | 2.6 nM | 0.69 ± 0.22 fold | 9.21 ± 3.66 nM | 1.45 ± 0.28 nM | 0.54 ± 0.06 fold | 0.91 ± 0.29 fold
CC(=O)OCCn1nnc([C@]23CCC(C)(C)C[C@H]2[C@H]2C(=O)C=C4[C@@]5(C)C=C(C#N)C(=O)C(C)(C)[C@@H]5CC[C@@]4(C)[C@]2(C)CC3)n1 [Compound T8] | 0.64 nM | 0.41 fold |  |  |  | 
COCCn1nnc([C@]23CCC(C)(C)C[C@H]2[C@H]2C(=O)C=C4[C@@]5(C)C=C(C#N)C(=O)C(C)(C)[C@@H]5CC[C@@]4(C)[C@]2(C)CC3)n1 [Compound T9] | 1.27 nM | 0.82 fold |  |  |  | 
CC(=O)OCCc1noc([C@]23CCC(C)(C)C[C@H]2[C@H]2C(=O)C=C4[C@@]5(C)C=C(C#N)C(=O)C(C)(C)[C@@H]5CC[C@@]4(C)[C@]2(C)CC3)n1 [Compound T14] | 0.48 nM | 0.31 fold |  |  |  | 
COCCc1noc([C@]23CCC(C)(C)C[C@H]2[C@H]2C(=O)C=C4[C@@]5(C)C=C(C#N)C(=O)C(C)(C)[C@@H]5CC[C@@]4(C)[C@]2(C)CC3)n1 [Compound T15] | 0.6 ± 0.05 nM | 0.38 ± 0.04 fold |  |  |  | 
COC(=O)NCCc1noc([C@]23CCC(C)(C)C[C@H]2[C@H]2C(=O)C=C4[C@@]5(C)C=C(C#N)C(=O)C(C)(C)[C@@H]5CC[C@@]4(C)[C@]2(C)CC3)n1 [Compound T17] | 0.75 nM | 0.48 fold |  |  |  | 
CCNC(=O)NCCc1noc([C@]23CCC(C)(C)C[C@H]2[C@H]2C(=O)C=C4[C@@]5(C)C=C(C#N)C(=O)C(C)(C)[C@@H]5CC[C@@]4(C)[C@]2(C)CC3)n1 [Compound T18] | 1.33 nM | 0.86 fold |  |  |  | 
CC(=O)NCCc1noc([C@]23CCC(C)(C)C[C@H]2[C@H]2C(=O)C=C4[C@@]5(C)C=C(C#N)C(=O)C(C)(C)[C@@H]5CC[C@@]4(C)[C@]2(C)CC3)n1 [Compound T19] | 0.94 nM | 0.60 fold |  |  |  | 
CCCc1noc([C@]23CCC(C)(C)C[C@H]2[C@H]2C(=O)C=C4[C@@]5(C)C=C(C#N)C(=O)C(C)(C)[C@@H]5CC[C@@]4(C)[C@]2(C)CC3)n1 [Compound T26] | 7.82 nM | 4.83 fold |  |  |  | 
CC(C)c1noc([C@]23CCC(C)(C)C[C@H]2[C@H]2C(=O)C=C4[C@@]5(C)C=C(C#N)C(=O)C(C)(C)[C@@H]5CC[C@@]4(C)[C@]2(C)CC3)n1 [Compound T27] | 6.03 nM | 3.72 fold |  |  |  | 
CC1(C)CC[C@]2(c3nc(C(C)(C)C)no3)CC[C@]3(C)[C@H](C(=O)C=C4[C@@]5(C)C=C(C#N)C(=O)C(C)(C)[C@@H]5CC[C@]43C)[C@@H]2C1 [Compound T28] | 22.3 nM | 13.75 fold |  |  |  | 
CC1(C)CC[C@]2(c3nc(C4CC4)no3)CC[C@]3(C)[C@H](C(=O)C=C4[C@@]5(C)C=C(C#N)C(=O)C(C)(C)[C@@H]5CC[C@]43C)[C@@H]2C1 [Compound T29] | 4.03 nM | 2.49 fold | 43.7 nM |  |  | 2.84 fold
CC1(C)CC[C@]2(c3nc(CC4CC4)no3)CC[C@]3(C)[C@H](C(=O)C=C4[C@@]5(C)C=C(C#N)C(=O)C(C)(C)[C@@H]5CC[C@]43C)[C@@H]2C1 [Compound T30] | 4.82 nM | 2.97 fold | 64.5 nM |  |  | 4.19 fold
CC1(C)CC[C@]2(c3nc(C4CCC4)no3)CC[C@]3(C)[C@H](C(=O)C=C4[C@@]5(C)C=C(C#N)C(=O)C(C)(C)[C@@H]5CC[C@]43C)[C@@H]2C1 [Compound T31] | 9.34 nM | 5.76 fold |  |  |  | 
CC1(C)CC[C@]2(c3nc(C4CCCC4)no3)CC[C@]3(C)[C@H](C(=O)C=C4[C@@]5(C)C=C(C#N)C(=O)C(C)(C)[C@@H]5CC[C@]43C)[C@@H]2C1 [Compound T32] | 20.8 nM | 12.84 fold |  |  |  | 
CC1(C)CC[C@]2(c3nc(C4CCCCC4)no3)CC[C@]3(C)[C@H](C(=O)C=C4[C@@]5(C)C=C(C#N)C(=O)C(C)(C)[C@@H]5CC[C@]43C)[C@@H]2C1 [Compound T33] | 25.6 nM | 15.81 fold |  |  |  | 
C[C@@H]1C(=O)C(C#N)=C[C@]2(C)C3=CC(=O)[C@@H]4[C@@H]5CC(C)(C)CC[C@]5(c5nnc(CF)o5)CC[C@@]4(C)[C@]3(C)CC[C@@H]12 [Compound T38] | 0.46 ± 0.02 nM | 0.20 ± 0.02 fold | 3.95 ± 1.12 nM |  |  | 0.43 ± 0.14 fold
C[C@@H]1C(=O)C(C#N)=C[C@]2(C)C3=CC(=O)[C@@H]4[C@@H]5CC(C)(C)CC[C@]5(c5noc(CF)n5)CC[C@@]4(C)[C@]3(C)CC[C@@H]12 [Compound T39] | 1.98 nM | 0.42 fold | 1.88 nM |  |  | 0.20 fold
CC1(C)CC[C@]2(c3nc(CO)no3)CC[C@]3(C)[C@H](C(=O)C=C4[C@@]5(C)C=C(C#N)C(=O)C(C)(C)[C@@H]5CC[C@]43C)[C@@H]2C1 [Compound T42] | 0.44 nM | 0.32 fold | 2.58 nM |  |  | 0.26 fold
